Values of other authors as cited in paper PMC10138554, “Insights into the Microbicidal, Antibiofilm, Antioxidant and Toxicity Profile of New O-Aryl-Carbamoyl-Oxymino-Fluorene Derivatives” (International Journal of Molecular Sciences, 2023).
≈ marks a conversion by molar mass, not a printed value.

System: Artemia franciscana Kellog nauplii
Conditions: comparison value for brine shrimp toxicity; cited from earlier work

O=P1(N(CCCl)CCCl)NCCCO1 (stereo not shown) [cyclophosphamide]
IC50 (toxicity): 16.3 µg/mL (≈ 62.4 µM)
